The text below walks through data of patent US20250000854A1, “4-(Aminomethyl)-6-(1-Methyl-1H-Pyrazol-4-YL)Isoquinolin-1(2H)-One Derivatives as MTA-Cooperative Inhibitors of PRMT5” (BeiGene, Ltd., priority 2022, published 2025).

SMILES strings stand for the structures. Structures can show the parent of a compound that is named as a salt.

For test [1], the target named is T1, human PRMT5/MEP50 enzyme (Homo sapiens (Human), UniProt O14744). The test can be described thus: PRMT5 Biochemical Assay (TR-FRET) in the presence of MTA. The conditions noted are these: with 800 nM MTA; 10 nM PRMT5/MEP50, 3 μM S-adenosylmethionine, histone H4 peptide. The method, then:
(§1) The assay measures the methylation activity of purified human PRMT5/MEP50 enzyme toward histone H4-R3. Compounds disclosed herein were tested for inhibition of PRMT5/MEP50 using PRMT5 TR-FRET Assay Kit (BPS Bioscience) which contains a highly specific antibody that recognizes methylated substrates. The assay was carried out in 384-well low volume black plates in a reaction mixture containing 10 nM PRMT5/MEP50 complex, biotinylated histone H4 peptide, 3 μM S-adenosylmethionine and 0-10 μM compound in buffer containing 50 mM Tris-HCl buffer (pH 8.5), 0.005% BSA, 1 mM TCEP and 0.002% Tween-20. The PRMT5/MEP50 enzyme was incubated with compounds disclosed herein and biotinylated histone H4 peptide for 20 minutes at room temperature. The reaction was initiated by addition of S-adenosylmethionine. After reacting at room temperature for 120 minutes, the detection solution containing Eu-labeled antibody and dye-labeled acceptor in detection buffer was added to the reaction mixture. Plates were sealed and incubated at room temperature for 60 minutes, and the TR-FRET signals (excitation 337 nm, emission 665/620 nm) were recorded on a PHERAstar FSX plate reader (BMG Labtech). The inhibition percentage of PRMT5/MEP50 activity in presence of increasing concentrations of compounds was calculated based on the ratio of fluorescence at 665 nm to that at 620 nm. The IC50 value for each compound was derived from fitting the dose-response % inhibition data to the four-parameter logistic model by Dotmatics. And the compounds were tested in the presence and absence of MTA to evaluate whether the compounds display MTA-cooperative activity.
On the technique in general: TR-FRET usually uses a lanthanide donor and a delayed reading to cut background.

In test [2] the target is T1, human PRMT5/MEP50 enzyme. In words: PRMT5 Biochemical Assay (TR-FRET) in the absence of MTA. The conditions noted are these: without MTA; 10 nM PRMT5/MEP50, 3 μM S-adenosylmethionine, histone H4 peptide. The method, then: as §1

T1 sequence (O14744 whole entry): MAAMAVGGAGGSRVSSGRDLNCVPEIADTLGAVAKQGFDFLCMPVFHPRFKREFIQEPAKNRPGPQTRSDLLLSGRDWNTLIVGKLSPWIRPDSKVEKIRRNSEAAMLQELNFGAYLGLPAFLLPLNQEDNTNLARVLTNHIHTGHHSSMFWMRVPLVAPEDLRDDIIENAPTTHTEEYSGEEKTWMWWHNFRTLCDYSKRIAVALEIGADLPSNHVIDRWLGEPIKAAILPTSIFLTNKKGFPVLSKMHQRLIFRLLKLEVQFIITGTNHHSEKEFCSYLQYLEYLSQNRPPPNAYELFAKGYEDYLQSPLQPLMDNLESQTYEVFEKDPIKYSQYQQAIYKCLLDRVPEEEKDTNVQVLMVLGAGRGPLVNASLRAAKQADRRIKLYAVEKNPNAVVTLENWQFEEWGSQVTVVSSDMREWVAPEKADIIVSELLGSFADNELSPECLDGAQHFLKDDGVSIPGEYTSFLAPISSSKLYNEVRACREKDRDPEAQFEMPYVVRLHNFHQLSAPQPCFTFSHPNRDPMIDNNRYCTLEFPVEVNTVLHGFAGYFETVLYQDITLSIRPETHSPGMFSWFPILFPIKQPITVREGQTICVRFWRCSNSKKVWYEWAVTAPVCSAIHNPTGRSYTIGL
T1 sequence (Q9BQA1 whole entry partner): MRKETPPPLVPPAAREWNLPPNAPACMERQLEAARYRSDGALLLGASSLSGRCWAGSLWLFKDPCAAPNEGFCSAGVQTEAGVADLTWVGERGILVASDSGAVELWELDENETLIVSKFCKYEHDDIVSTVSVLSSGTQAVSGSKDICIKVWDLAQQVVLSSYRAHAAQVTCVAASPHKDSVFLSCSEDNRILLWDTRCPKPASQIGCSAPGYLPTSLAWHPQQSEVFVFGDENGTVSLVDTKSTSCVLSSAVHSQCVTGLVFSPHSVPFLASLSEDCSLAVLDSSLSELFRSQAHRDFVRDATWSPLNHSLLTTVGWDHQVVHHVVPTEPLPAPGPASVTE

A word on the IC50: it is the point on the concentration scale where inhibition reaches its midpoint. `Cn1ncc(-c2ccc3c(=O)[nH]cc(CN)c3c2)c1-c1cccc(OC2CC2)c1C#N` [Example 6, 2-(4-(4-(aminomethyl)-1-oxo-1,2-dihydroisoquinolin-6-yl)-1-methyl-1H-pyrazol-5-yl)-6-cyclopropoxybenzonitrile hydrochloride]: the half-inhibitory concentration (IC50) was determined as 3.5 nM in test [1] and 87 nM in test [2].
On to `Cc1cc(-c2c(-c3ccc4c(=O)[nH]cc(CN)c4c3)cnn2C)c(C#N)c2ccccc12` [Example 4, 2-(4-(4-(aminomethyl)-1-oxo-1,2-dihydroisoquinolin-6-yl)-1-methyl-1H-pyrazol-5-yl)-4-methyl-1-naphthonitrile hydrochloride], for which the 50% inhibitory concentration (IC50) in test [1] was found to be 2.7 nM; in test [2], 29 nM.
The corresponding values for `Cn1ncc(-c2ccc3c(=O)[nH]cc(CN)c3c2)c1-c1cc(C(F)(F)F)cc(OC2CC2)c1C#N` [Example 7, 2-(4-(4-(aminomethyl)-1-oxo-1,2-dihydroisoquinolin-6-yl)-1-methyl-1H-pyrazol-5-yl)-6-cyclopropoxy-4-(trifluoromethyl)benzonitrile hydrochloride] are 6.2 nM and 165 nM.
The corresponding values for `Cn1ncc(-c2ccc3c(=O)[nH]cc(CN)c3c2)c1-c1c(F)cc2ccccc2c1C#N` [Example 1, 2-(4-(4-(aminomethyl)-1-oxo-1,2-dihydroisoquinolin-6-yl)-1-methyl-1H-pyrazol-5-yl)-3-fluoro-1-naphthonitrile] are 3.2 nM and 29 nM.
Taken in the same sequence, the figures for `Cn1ncc(-c2ccc3c(=O)[nH]cc(CN)c3c2)c1-c1c(F)c(Cl)cc(OC2CC2)c1C#N` [Example 3, 2-(4-(4-(aminomethyl)-1-oxo-1,2-dihydroisoquinolin-6-yl)-1-methyl-1H-pyrazol-5-yl)-4-chloro-6-cyclopropoxy-3-fluorobenzonitrile hydrochloride] were 7.6 nM and 68 nM.
In the case of `Cn1ncc(-c2ccc3c(=O)[nH]cc(CN)c3c2)c1-c1cc(Cl)cc(OC2CC2)c1C#N` [Example 2, 2-(4-(4-(aminomethyl)-1-oxo-1,2-dihydroisoquinolin-6-yl)-1-methyl-1H-pyrazol-5-yl)-4-chloro-6-cyclopropoxybenzonitrile hydrochloride], the concentration for half-maximal inhibition (IC50) was found to be 3.3 nM in test [1] and 77 nM in test [2].
Take `Cn1ncc(-c2ccc3c(=O)[nH]cc(CN)c3c2)c1-c1cc(Cl)c2ccccc2c1C#N` [Example 5, 2-(4-(4-(aminomethyl)-1-oxo-1,2-dihydroisoquinolin-6-yl)-1-methyl-1H-pyrazol-5-yl)-4-chloro-1-naphthonitrile hydrochloride]: the IC50 was found to be 2.7 nM in test [1] and 27 nM in test [2].
